What was measured:
Olfr205 [1] = molecular target: T1, Olfr205 (Mus musculus, UniProt B9EKD6); assay: Reconstruction experiment: cAMP-responsive luciferase in HEK293 cells expressing Olfr205; type: cell-based
T1 sequence (B9EKD6 1-305): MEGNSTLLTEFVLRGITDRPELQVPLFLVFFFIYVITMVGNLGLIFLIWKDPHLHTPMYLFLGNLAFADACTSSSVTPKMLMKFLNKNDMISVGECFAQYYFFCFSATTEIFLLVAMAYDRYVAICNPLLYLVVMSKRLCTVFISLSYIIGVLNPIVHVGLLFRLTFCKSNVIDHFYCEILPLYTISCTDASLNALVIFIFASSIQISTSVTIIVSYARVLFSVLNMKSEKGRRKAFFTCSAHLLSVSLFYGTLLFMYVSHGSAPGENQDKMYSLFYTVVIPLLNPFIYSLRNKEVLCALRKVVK
Text: (§1) In order to verify whether or not the mouse-derived olfactory receptors obtained in the above 3) and 4) surely respond to odor molecules used for screening, a system in which adenylate cyclase is activated from a olfactory receptor through heterotrimeric G protein including Gaolf to accumulate cAMP from ATP, and luciferase expression is induced in an intracellular cAMP concentration-dependent manner, was reconstructed in HEK 293 cells.
(§2) Specifically, each of mouse-derived olfactory receptor genes, Olfr168, Olfr205, Olfr45 and Olfr166, and DNA coding for the amino acid sequence shown in SEQ ID NO:9 were fused. The obtained genes were incorporated into pME18S plasmid incorporated into downstream of SRa promoter, a plasmid having a base sequence coding for the amino acid sequence shown in SEQ ID NO:2 to allow Gaolf to be expressed, a plasmid to allow Receptor-transporting protein 1S (RTP1S) having a base sequence shown in SEQ ID NO:6, which is a factor to raise the efficiency of presentation of olfactory receptors from the Golgi body to the cell surface, to be expressed, and a cAMP-responsive luciferase expressing plasmid pGlosensor-22 (Promega Corporation). The plasmids are introduced into HEK 293T cells by Lipofectamine 2000 (Life Technologies) to cause transient expression.

Olfr168 [2] = molecular target: T2, Olfr168 (Mus musculus, UniProt A0PK36); assay: Fluo-4 Ca2+ uptake in isolated olfactory sensory neuron HI28-03 (calculation method (A)); type: cell-based; conditions: HI28-03 cells
T2 sequence (A0PK36 1-312): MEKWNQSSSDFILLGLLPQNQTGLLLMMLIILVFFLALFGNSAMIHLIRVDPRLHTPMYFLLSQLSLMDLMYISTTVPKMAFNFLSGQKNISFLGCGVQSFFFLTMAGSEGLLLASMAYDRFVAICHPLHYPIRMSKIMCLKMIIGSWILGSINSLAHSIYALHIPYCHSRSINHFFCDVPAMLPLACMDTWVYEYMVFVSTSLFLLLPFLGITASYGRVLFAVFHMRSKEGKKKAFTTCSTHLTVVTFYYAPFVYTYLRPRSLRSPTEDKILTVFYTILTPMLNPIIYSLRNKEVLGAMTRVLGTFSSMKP
Method: (§3) The olfactory epithelium-derived cells were stimulated as follows.
(§4) As a result, Olfr168 (mOR271-1; GenBank accession number: AY317252) and Olfr205 (mOR182-11P; GenBank accession number: BC150839) were identified in HI28-03 and HI25-18 respectively.
(§5) Specifically, the above Ca^2+ ringer solution was refluxed to the slide glass which had been put on the OneCell device and had stored olfactory epithelium-derived cells, and a Ca^2+ ringer solution containing 3 mM 2-pentanone described below was added thereto for 20 seconds every two minutes. The degree of increase in transient fluorescence intensity derived from Fluo-4 in each olfactory sensory neuron was repeatedly measured 5 times (FIG. 8).

[3] = tested on: olfactory sensory neurons; assay: OneCell system Fluo-4 screening of olfactory epithelium-derived cells stimulated by an odor molecule; type: cell-based, mouse; conditions: 2-pentanone (30 mM) for 10 seconds and (3 mM) for 10 seconds; of approximately 10000 olfactory sensory neurons
Method: C57/BL6J (male) aged 3 to 5 weeks were purchased from Japan SLC, Inc. The mice were beheaded after intravenous anesthesia with […] of Urethane solution (300 mg/mL; U2500, Sigma-Aldrich) and olfactory epithelium was extracted on ice. […] An equal amount of Ca^2+ ringer solution containing 0.1 mg/mL DNase I, 0.1 mg/mL BSA, and […] leupeptin (0.025 mg/mL trypsin inhibitor in the case of trypsin) was added thereto to stop the enzyme reaction, and the obtained solution then allowed to pass through a cell strainer twice to remove large tissue fragments.
The sample after removal was subjected to centrifugation treatment, and this was washed once to obtain an olfactory epithelium-derived cell solution.
as §3
The olfactory epithelium-derived cells were stimulated by an odor molecule, 2-pentanone (30 mM) for 10 seconds and 2-pentanone (3 mM) for 10 seconds under the above conditions, and olfactory sensory neurons included in olfactory epithelium-derived cells were then identified by a high K^+ ringer solution. As a result, approximately 100 of approximately 10000 olfactory sensory neurons reacted with 2-pentanone. […]

Olfr168 [4] = molecular target: T2, Olfr168; assay: Reconstruction experiment: cAMP-responsive luciferase in HEK 293T cells expressing Olfr168; type: cell-based; conditions: HEK 293T cells transiently expressing Olfr168, Gaolf, RTP1S, pGlosensor-22
Text: as §1, §2

Olfr205 [5] = molecular target: T1, Olfr205; assay: Fluo-4 Ca2+ uptake in isolated olfactory sensory neuron HI25-18 (calculation method (A)); type: cell-based; conditions: HI25-18 cells
Method: as §3, §4, §5

Olfr45 = Olfr45 (Mus musculus, UniProt A0JLW4); assay: cell-based
Sequence of Olfr45 (A0JLW4 1-311): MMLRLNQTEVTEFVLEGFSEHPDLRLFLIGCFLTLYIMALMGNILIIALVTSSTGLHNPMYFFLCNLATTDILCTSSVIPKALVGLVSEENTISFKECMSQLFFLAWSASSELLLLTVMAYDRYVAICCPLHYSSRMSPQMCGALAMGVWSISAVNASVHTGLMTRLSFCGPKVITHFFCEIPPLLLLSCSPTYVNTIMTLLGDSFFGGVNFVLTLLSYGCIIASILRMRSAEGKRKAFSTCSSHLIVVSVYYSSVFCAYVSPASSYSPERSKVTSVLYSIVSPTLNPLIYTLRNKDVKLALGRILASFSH
Method: (§6) The olfactory epithelium-derived cell solution obtained above was subjected to centrifugation at 1000 rpm for 5 minutes (2420, KUBOTA Co.) to remove the supernatant, and to this, a Ca^2+ ringer solution containing […] Fluo4-AM (F312, Dojindo) and 0.02 wt % Pluronic F-127 (P6867, Molecular Probes) was then added. A polystyrene slide having about 400000 nano chambers with a diameter of […] for As OneCell Picking system (AS ONE Corporation; automated single-cell analysis and isolation system [equipped with temperature control system, time lapse system, perfusion system]; Yoshimoto, et al., Scientific Reports Vol. 3 (2013) 1191; hereinafter this can be referred to as “OneCell system” in the description) was immersed in 2% PVP (polyvinyl pyrrolidone (NACALAI TESQUE, INC.)) and then put on a perfusion jig for the OneCell system. […]
(§7) Subsequently, the slide was put on a prescribed site of the OneCell system and maintained with a Ca^2+ ringer solution having been circulated, and fluorescent images derived from Fluo-4 of each olfactory epithelium-derived cell included in the nano chambers were observed through 4×objective lens, and changes in fluorescence intensity over time were recorded. […]

Olfr166 [6] = molecular target: T3, Olfr166 (Mus musculus, UniProt Q8VGX2); assay: cell-based
T3 sequence (Q8VGX2 1-312): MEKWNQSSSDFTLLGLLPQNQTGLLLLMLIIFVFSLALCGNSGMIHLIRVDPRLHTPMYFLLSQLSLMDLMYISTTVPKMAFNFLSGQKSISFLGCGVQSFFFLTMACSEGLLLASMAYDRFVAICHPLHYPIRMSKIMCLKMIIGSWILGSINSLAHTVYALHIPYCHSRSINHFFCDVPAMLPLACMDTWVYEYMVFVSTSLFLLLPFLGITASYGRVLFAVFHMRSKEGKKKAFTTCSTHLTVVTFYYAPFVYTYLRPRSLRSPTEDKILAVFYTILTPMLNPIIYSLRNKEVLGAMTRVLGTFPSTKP
Text: as §1, §2

Olfr166 [7] = molecular target: T3, Olfr166; conditions: HG28-24 cells, stimulation by pyridine
Method: as §6, §7

Olfr1258 = Olfr1258 (Mus musculus, UniProt Q8VGN6); assay: Reconstruction experiment: cAMP-responsive luciferase in HEK293 cells expressing Olfr1258; type: cell-based
Sequence of Olfr1258 (Q8VGN6 1-311): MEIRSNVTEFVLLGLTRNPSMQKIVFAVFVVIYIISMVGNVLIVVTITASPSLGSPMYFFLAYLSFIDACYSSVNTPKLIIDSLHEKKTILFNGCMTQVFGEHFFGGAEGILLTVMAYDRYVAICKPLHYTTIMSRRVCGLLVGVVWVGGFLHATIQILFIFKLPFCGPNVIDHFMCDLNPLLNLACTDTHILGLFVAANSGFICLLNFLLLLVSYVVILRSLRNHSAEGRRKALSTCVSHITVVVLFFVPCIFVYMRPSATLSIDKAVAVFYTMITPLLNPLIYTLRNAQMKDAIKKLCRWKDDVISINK

[8] = tested on: human-derived olfactory receptor; assay: Human olfactory receptor-expressing cell array (404 sites, HEK293-C1/2 strain) on OneCell system; type: cell-based; conditions: concentration of 10 mM
Text: In the substrate used, hydrophilicity is increased by plasma treatment of the surface of a slide glass (Matsunami Glass Ind., Ltd.) by a plasma modifier (PM100, Yamato Scientific Co., Ltd.) It should be noted that a machine used for dot printing is a LaboJet-500 manufactured by MicroJet. […] When the array is left to stand on specific culture conditions and observed after 2 days, it is expected that added HEK293-C1/2 strain is proliferated on the sites on which the plasmid has been immobilized to form colonies. After that, the substrate having formed colonies thereon is loaded on the above OneCell system in the method shown in 2).

[9] = 3 mM 2-pentanone for 20 seconds every two minutes, measured 5 times
[10] = stimulation by 2-pentanone, experiment independently carried out 5 times, read-out: relative value of increased Fluo-4 fluorescence intensity (high K+ ringer depolarization considered 100%)

Question: Which results are given for `CCCC(C)=O` [2-pentanone]?
Answer: EC50 (Olfr205 [1]): ~4 mM; increase in transient fluorescence intensity derived from Fluo-4 (Olfr168 [2]; [9]): 46±12; Emax (Olfr168 [2]; [10]): 74 ± 3%; number of olfactory sensory neurons that reacted with the odor molecule [3]: approximately 100; EC50 (Olfr168 [4]): 2.1 ± 0.6 mM; increase in transient fluorescence intensity derived from Fluo-4 (Olfr205 [5]; [9]): 38±10; Emax (Olfr205 [5]; [10]): 67 ± 4%

Question: What does the source list for `c1ccncc1` [pyridine]?
Answer: increased amount of fluorescence intensity derived from Fluo-4 (Olfr45; IG04-13 cells, stimulation by pyridine): 195±70; Emax (Olfr45; read-out: relative value of increased Fluo-4 fluorescence intensity (high K+ ringer depolarization considered 100%)): 120 ± 6%; EC50 (Olfr166 [6]): ~5 mM; increased amount of fluorescence intensity derived from Fluo-4 (Olfr166 [7]): 153±47; relative value of increased Fluo-4 fluorescence intensity (high K+ ringer depolarization considered 100%) (Olfr166 [7]; experiment independently carried out 5 times): 132±5%

Question: How did the EC50 (Olfr1258) turn out when `CCC(C)=O` [2-butanone] was run?
Answer: Its EC50 is roughly 1.5 mM.

Question: Which “fluorescence intensity response of cells to the odor molecule” value [8] does the source give for `COc1cc(C=O)ccc1O` [vanillin] here?
Answer: The value was “increase in fluorescence intensity was observed in some cells”.

Source: patent publication US20240280562A1, “METHOD FOR QUANTIFYING ODORS, CELLS USED IN SAME, AND METHOD FOR PRODUCING SAID CELLS” (KOMI HAKKO CORPORATION, priority 2017, published 2024)
